Test results published in publication PMC11597202, “Novel Thiazole-Fused [4,5-g] or [5,4-g]Quinazolin-8-ones and Their Quinazoline Analogues: Synthesis and Biological Evaluation” (Pharmaceuticals, 2024).

Tests used:
[1] = target: T1, DYRK1A (Homo sapiens, UniProt Q13627); assay: ADP-Glo kinase inhibition assay, DYRK1A; assay type: biochemical; details: percentage of maximum activity of the DMSO control, mean n = 2, 10 µM ATP, read-out: Residual activity DYRK1A; for remaining activity at 1 µM: 1 μM compound; for remaining activity at 10 µM: 10 μM compound
T1 construct: host or cells: Sf9 insect cells (baculovirus)
Protocol: (§1) Kinase enzymatic activities were assayed in 384-well plates using the ADP-Glo^TM assay kit (Promega, Madison, WI, USA) according to the recommendations of the manufacturer. This luminescent ADP detection assay was described by Zegzouti and co-workers and provides a homogeneous and high-throughput screening method to measure kinase activity by quantifying the amount of ADP produced during a kinase reaction. Briefly, the reactions were carried out in a final volume of 6 µL for 30 min at 30 °C in an appropriate kinase buffer (10 mM MgCl2, 1 mM EGTA, 1 mM DTT, 25 mM Tris-HCl pH 7.5, 50 µg/mL heparin), with peptide or protein as substrate in the presence of 10 µM ATP. Peptide substrates were obtained from ProteoGenix (Schiltigheim, France) or Sigma for Histone H1, Poly (L-glutamic acid–L-tyrosine) sodium salt, Casein and MBP. After that, 6 µL of ADP-Glo^TM Kinase Reagent was added to stop the kinase reaction. After an incubation time of 50 min at room temperature (rt), 12 µL of Kinase Detection Reagent was added for one hour at rt. The transmitted signal was measured using the Envision (PerkinElmer, Waltham, MA, USA) microplate luminometer and expressed as Relative Light Units (RLUs). Kinase activities are expressed as percentages of remaining kinase activities detected after treatment with 1 or 10 µM of the tested compounds. The maximum kinase activity was measured in the absence of inhibitor but with an equivalent dose of DMSO (solvent of the tested compounds).
(§2) 3. Kinase inhibition assays
(§3) Kinase enzymatic activities were assayed in 384-well plates using the ADP-GloTM assay kit (Promega, Madison, WI) according to the recommendations of the manufacturer. This luminescent ADP detection assay was described by Zegzouti and co-workers and provides a homogeneous and high-throughput screening method to measure kinase activity by quantifying the amount of ADP produced during a kinase reaction. Briefly, the reactions were carried out in a final volume of 6 µl for 30 min at 30°C in appropriate kinase buffer (10 mM MgCl2, 1 mM EGTA, 1 mM DTT, 25 mM Tris-HCl pH 7.5, 50 µg/mL heparin), with peptide or protein as substrate in the presence of 10 µM ATP. Peptide substrates were obtained from ProteoGenix (Schiltigheim, France) or Sigma for Histone H1, Poly (L-glutamic acid – L-tyrosine) sodium salt, Casein and MBP. After that, 6 µL of ADP-GloTM Kinase Reagent was added to stop the kinase reaction. After an incubation time of 50 min at room temperature (rt), 12 µL of Kinase Detection Reagent was added for 1 h at rt. The transmitted signal was measured using the Envision (PerkinElmer, Waltham, MA) microplate luminometer and expressed in Relative Light Unit (RLU). Kinase activities are expressed in percentages of remaining kinase activities detected after treatment with 1 or 10 µM of the tested compounds. The maximal kinase activity is measured in the absence of inhibitor but with an equivalent dose of DMSO (solvent of the tested compounds).
(§4) Table. Human protein kinases tested in the panel: CDK9, HASPIN, PIM1, GSK3b, CK1ε, JAK3, CLK1 […]
(§5) 1 Peptide substrates were obtained from ProteoGenix (Schiltigheim, France) or Sigma for Histone H1, Poly (L-glutamic acid – L-tyrosine) sodium salt, Casein and MBP; 2 “Sp” stands for phosphorylated serine.
(§6) Controls inhibitors: To validate each kinase assay, the following model inhibitors were used under the same conditions than the tested compounds: Staurosporine from Streptomyces sp.

[2] = In vitro cytotoxic assay, MDA-MB-231; assay type: cell-based; details: human, MDA-MB-231 cells (breast cancer cell line); read-out: In vitro cytotoxic activity IC50, MBA-MB-231; further: 0.1-25 µM tested
Protocol: (§7) Skin normal fibroblastic cells were purchased from Lonza (Basel, Switzerland). […] All culture media were supplemented by 10% of FBS, 1% of penicillin–streptomycin and 2 mM glutamine.
(§8) Chemicals were solubilized in DMSO at a concentration of 10 mM (stock solution) and diluted in culture medium to the desired final concentrations. […] Cells were plated in 96-well plates (4000 cells/well). Twenty-four hours after seeding, the cells were exposed to chemicals. […] Image acquisition and analysis were performed using a Cellomics ArrayScan VTI/HCS Reader (ThermoScientific, Les Ulis, France). The survival percentages were calculated as the percentage of cell number after compound treatment over cell number after DMSO treatment. The relative IC50 values were calculated using the curve fitting XLfit 5.5.0.5 (idbs) integrated in Microsoft Excel as an add-on.
(§9) 4.3.1. Cell culture. Skin normal fibroblastic cells are purchased from Lonza (Basel, Switzerland). Huh7- […]
(§10) from ATCC (American Type Culture Collection). […]
(§11) supplemented by 10% of FBS, 1% of penicillin-streptomycin and 2 mM glutamine.
(§12) 4.3.2. Cytotoxic assay. Chemicals were solubilized in DMSO at a concentration of 10 mM (stock solution) and diluted in culture medium to the desired final concentrations. The dose effect cytotoxic assays (IC50 determination) were performed by increasing the concentrations of each chemical (final well […]
(§13) Cells were plated in 96-well plates
(§14) (4000 cells/well). Twenty-four hours after seeding, cells were exposed to chemicals. After 48h of treatment, cells were washed in PBS and fixed in cooled 90% ethanol/5% acetic acid for 20 min and the […]
(§15) Image acquisition and analysis were performed using a Cellomics ArrayScan VTI/HCS Reader (ThermoScientific). The survival percentages were calculated as the percentage of cell number after compound treatment over cell number after DMSO treatment. The relative IC50 were calculated using the curve fitting XLfit 5.5.0.5 (idbs) integrated in Microsoft Excel as an add-on. The 4 Parameter Logistic Model or Sigmoidal Dose-Response Model describing the sigmoid-shaped response pattern was used (fit = (A+[(B-A)/(1+[(C/x)^D])]) where fit is the response and X is the tested concentration of the compound. The lower asymptote is A (also referred to as the bottom of the curve or lower plateau or the min) and the upper asymptote is B (also referred to as the top of the curve or upper plateau or the max). The slope of the linear part of the curve is described by the factor D. The parameter C is the concentration corresponding to the response midway between A and B. C is called “relative IC50” because it refers to the maximum response obtained by a […]
(§16) The results are represented as the mean ± standard error (SE) calculated from at least three independent experiments.

[3] = In vitro cytotoxic assay, MDA-MB-468; assay type: cell-based; details: human, MDA-MB-468 cells (breast cancer cell line); read-out: In vitro cytotoxic activity IC50, MBA-MB4-68
Protocol: as §7, §8, §9, §10, §11, §12, §13, §14, §15, §16

[4] = target: T2, GSK-3β (Homo sapiens, UniProt P49841); assay: ADP-Glo kinase inhibition assay, GSK-3β; assay type: biochemical; details: percentage of maximum activity of the DMSO control, mean n = 2, 10 µM ATP, read-out: Residual activity GSK-3β; for remaining activity at 1 µM: 1 μM compound; for remaining activity at 10 µM: 10 μM compound
T2 construct: host or cells: Sf9 insect cells (baculovirus)
Protocol: as §1, §2, §3, §4, §5, §6

T2 sequence (P49841 whole entry): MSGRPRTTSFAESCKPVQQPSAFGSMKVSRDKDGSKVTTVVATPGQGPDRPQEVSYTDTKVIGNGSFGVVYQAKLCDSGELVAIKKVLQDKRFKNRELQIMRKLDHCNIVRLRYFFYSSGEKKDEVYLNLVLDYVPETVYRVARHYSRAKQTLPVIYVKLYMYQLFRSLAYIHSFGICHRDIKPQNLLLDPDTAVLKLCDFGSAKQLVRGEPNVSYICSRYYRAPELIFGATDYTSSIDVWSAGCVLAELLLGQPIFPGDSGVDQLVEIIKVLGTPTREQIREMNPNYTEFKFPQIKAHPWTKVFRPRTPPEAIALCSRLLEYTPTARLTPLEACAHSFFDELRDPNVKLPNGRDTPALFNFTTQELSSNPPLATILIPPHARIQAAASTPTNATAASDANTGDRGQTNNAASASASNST

| Compound | remaining activity at 1 µM [1] [%] | remaining activity at 10 µM [1] [%] | IC50 at 48 h [2] [µM] | IC50 at 48 h [3] [µM] | remaining activity at 1 µM [4] [%] | remaining activity at 10 µM [4] [%] |
| --- | --- | --- | --- | --- | --- | --- |
| COC(=N)c1nc2cc3c(=O)n(Cc4ccccc4)cnc3cc2s1 [Compound 6a, Methyl 7-benzyl-8-oxo-7,8-dihydrothiazolo[4,5-g]quinazoline-2-carbimidate] | 100 | 103 | 20 | 19 | 94 | 76 |
| COC(=N)c1nc2cc3ncn(Cc4ccccc4)c(=O)c3cc2s1 [Compound 6b, Methyl 7-benzyl-8-oxo-7,8-dihydrothiazolo[5,4-g]quinazoline-2-carbimidate] | 103 | 109 | 3 | 1 | 101 | 107 |
| COC(=N)c1nc2c(ccc3c(=O)n(Cc4ccccc4)cnc32)s1 [Compound 6c, Methyl 7-benzyl-6-oxo-6,7-dihydrothiazolo[5,4-h]quinazoline-2-carbimidate] | 100 | 68 | 13 | 13 | 81 | 91 |
| COC(=N)c1nc2ccc3c(=O)n(Cc4ccccc4)cnc3c2s1 [Compound 6d, Methyl 7-benzyl-6-oxo-6,7-dihydrothiazolo[4,5-h]quinazoline-2-carbimidate] | 83 | 63 | 11 | 5 | 94 | 105 |
| COC(=N)c1nc2cc3c(Nc4ccc(OC)cc4F)ncnc3cc2s1 [Compound 15a, Methyl 8-[(2-fluoro-4-methoxyphenyl)amino]thiazolo[4,5-g]quinazoline-2-carbimidate] | 72 | 27 | 9 |  | 90 | 70 |
| COC(=N)c1nc2cc3ncnc(Nc4ccc(OC)cc4F)c3cc2s1 [Compound 15b, Methyl 8-[(2-fluoro-4-methoxyphenyl)amino]thiazolo[5,4-g]quinazoline-2-carbimidate] | 95 | 101 |  |  | 101 | 104 |
| COC(=N)c1nc2ccc3ncn(Cc4ccccc4)c(=O)c3c2s1 [Compound I, methyl 8-benzyl-9-oxo-8,9-dihydrothiazolo[5,4-f]quinazoline-2-carbimidate, reference compound] | 62 | 21 | 21 | 21 | 73 | 23 |
| COC(=N)c1nc2ccc3ncnc(Nc4ccc(OC)cc4F)c3c2s1 [Compound II, methyl 9-[(2-fluoro-4-methoxyphenyl)amino]thiazolo[5,4-f]quinazoline-2-carbimidate, reference compound] |  |  | 5 | 9 |  |  |
